# Test system: node-positive breast cancers
# Experiment: GEICAM/9906 randomized phase III adjuvant trial, FEC versus FEC-P: overall and disease-free survival, by PAM50 proliferation score
# Assay type: in vivo, human
# Settings: FEC-P vs. FEC; lowest quartile of 11-gene proliferation score
# Protocol: The primary endpoint of the […]/9906 clinical trial was disease-free survival. Secondary endpoints were: (a) overall survival; (b) prognostic and predictive value of molecular/genomic markers and (c) safety. The study was performed in accordance with the Declaration of Helsinki, approved by the ethics committees at all participating institutions and the Spanish Health Authority, and it was registered at www.clinicaltrials.gov (identifier code: NCT00129922). All patients provided written informed consent for therapy randomization and molecular analyses. […] Samples were gene expression profiled using the previously described RT-qPCR assay and analyzed using the clinical algorithm for subtype prediction (Parker et al., J Clin Oncol 27:1160-1167, 2009; Amp Laboratories: PAM50 Breast Cancer Intrinsic Classifier Information. at the World Wide Web (www) aruplab.com/Lab-Tests/General-Oncology/PAM50/index.jsp). […] In addition to the subtype classification, a PAM50proliferation score was calculated using the previously described 11-gene signature (BIRC5, CCNB1, CDC20, CDCA1, CEP55, KNTC2, MKI67, PTTG1, RRM2, TYMS, UBE2C) (Nielsen et al., Clin Cancer Res 16(21):5222-32, 2010). The significance of proliferation was evaluated using a classification into quartiles, and using the proliferation scores as a continuous variable. […]
structure (smiles),measurement,value
CC(=O)O[C@H]1C(=O)[C@@]2(C)[C@H]([C@H](OC(=O)c3ccccc3)[C@]3(O)C[C@H](OC(=O)[C@H](O)[C@@H](NC(=O)c4ccccc4)c4ccccc4)C(C)=C1C3(C)C)[C@]1(OC(C)=O)CO[C@@H]1C[C@@H]2O [paclitaxel],"HR for OS, low proliferation score",0.232

# Reference: US9181588B2, “Methods of treating breast cancer with taxane therapy” (The University of Utah Research Foundation, priority 2011, dated 2015)
